Measured values published in PMC3426542, “A Novel Virulence Strategy for Pseudomonas aeruginosa Mediated by an Autotransporter with Arginine-Specific Aminopeptidase Activity” (PLoS Pathogens, 2012).

Target: T1, SGAP (Streptomyces griseus, UniProt P80561)
T1 construct: gene SGR_5809; commercial preparation (Sigma)
Test: 4-nitroanilide release at […] nm, commercial enzyme
Type: biochemical
Details: 1 mM substrate, MMP, 37 °C

T1 sequence (P80561 46-329): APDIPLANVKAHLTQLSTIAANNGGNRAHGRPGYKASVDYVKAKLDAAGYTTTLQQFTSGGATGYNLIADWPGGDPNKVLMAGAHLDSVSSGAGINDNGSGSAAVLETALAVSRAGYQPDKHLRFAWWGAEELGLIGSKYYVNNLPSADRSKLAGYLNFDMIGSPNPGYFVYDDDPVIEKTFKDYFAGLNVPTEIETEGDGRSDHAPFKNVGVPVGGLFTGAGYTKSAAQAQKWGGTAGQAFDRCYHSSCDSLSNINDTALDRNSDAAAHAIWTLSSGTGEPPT

Compound	4-nitroanilide release at 405 nm, commercial enzyme
CC(C)C[C@H](N)C(=O)Nc1ccc([N+](=O)[O-])cc1 [leucine-p-nitroanilide]	SGAP clearly released maximal levels of 4-nitroanilide from leucine-p-nitroanilide and methionine-p-nitroanilide
CSCC[C@H](N)C(=O)Nc1ccc([N+](=O)[O-])cc1 [methionine-p-nitroanilide]	SGAP clearly released maximal levels of 4-nitroanilide from leucine-p-nitroanilide and methionine-p-nitroanilide
